# Data from ChEMBL document CHEMBL1149988, “Antibody catalyzed hydrolysis of a phosphotriester” (Bioorg Med Chem Lett, 1996).
# How the values were obtained:
# [1] = Hydrolysis kinetic catalysis constant was measured for the hydrolysis catalyzed by antibody 15C5
# [2] = Michaelis-Menten kinetics was measured for the hydrolysis catalyzed by antibody 15C5
# [3] = Catalysis kinetic constant was measured for the hydrolysis catalyzed by antibody 15C5
compound,measurement,setting,value
CC(=O)NC1COP(=O)(Oc2ccc([N+](=O)[O-])cc2)OC1 (stereo not drawn),Kuncat,[1],2.1 min⁻¹
same,Km,[2],87 µM
same,k cat,[3],0.0442 s⁻¹
